Source: patent US8586300B2, “Genetic polymorphisms and infertility” (The University of North Carolina at Chapel Hill, priority 2008, dated 2013)

Key:
spermatozoa mitochondria [1] = experiment: MTT assay of mitochondrial function in sperm after betaine supplementation; assay type: in vivo, mouse
Procedure: (§1) FIGS. 17A-17D are bar graphs showing the results of betaine supplementation on sperm concentration, motility and mitochondrial function in CHDH+/+ (WT), CHDH+/−, and CHDH−/− (KO) mice. […] Spermatozoa concentration was determined by counting cells using a hemocytometer. Results are presented as mean±SEM, n=9-11 animals per genotype. […] Motility assays were performed by counting the number of progressively motile sperm per total number of sperm in 5 squares of a hemocytometer. The results are presented as the mean % motility±SEM, p<0.001, n=8-9 animals per genotype. […] Absorbance values were normalized to the number of sperm assayed. All assays were performed in duplicate. The value for each animal is the mean of 4 assays (2 cauda epididymii, each assayed in duplicate per animal). Results are presented as the mean±SEM, p<0.05, n=5 animals/group. […] The number of cells that fluoresced red was counted in 5 random fields of vision for each sample and results are expressed as a percent of the total cells in those fields. Results are presented as mean±SEM, p<0.001, n=5 animals/group.
Sperm were isolated from the cauda epididymis as described above. An MTT (3-(4,5-dimethyl thiazol-2-yl)-2,5-diphenyl tetrazolium bromide) assay was conducted to measure mitochondrial function (Nasr-Esfahani, Aboutorabi et al. 2002) with the following modification: rather then visualizing positive MTT staining microscopically, MTT assays were conducted using a commercially available MIT assay kit (CellTiter 96 Non-radioactive Cell Proliferation Assay, Promega, Madison, Wis., United States of America) and cells were solubolized with the provided Solubolization/Stop Mix. 100 μL of isolated sperm were incubated in F10 media (Invitrogen Inc., Carlsbad, Calif., United States of America) in a 96-well plate with 15 μL of MTT solution at 37° C./5% CO2 for 2 hours. Following solubolization, the absorbance of each sample was read at a wavelength of 562 nm using a BIOTEK® plate reader (BioTek Instruments Inc., Winooski, Vt., United States of America). Absorbance was normalized to the number of sperm assayed.

sperm [2] = experiment: Sperm motility (progressively motile sperm, hemocytometer) after betaine supplementation via drinking water; assay type: in vivo, mouse
Procedure: as §1
Eight to 10 week old CHDH^+/+ and CHDH^−/− male mice were anesthetized with Halothane (Henry Schein, Inc.). A V-shaped incision was made beginning at the penis and extending out to the midline of the body. Testis and epididymis were excised from the animal and immediately placed in a 6-well tissue culture dish containing approximately 1 ml of M16 media (Sigma) in a well. All media, plates and tubes used were warmed to 37° C. prior to the dissection. Any plate or tube containing sperm, once isolated, was kept at 37° C. with 5% CO2 for the duration of the experiment. The cauda epididymis was separated from the other structures and then placed in a 24-well plate containing 300 μl of fresh M16 media in each well. The cauda epididymis was then cut several times and the dish was incubated at 37° C. with 5% CO2 for 15 minutes. Sperm concentration was determined by counting cells with a hemocytometer. Percent motility was determined by counting the number of progressively motile sperm per total number of sperm present using a hemocytometer. “Progressively motile sperm” refers to sperm that swim forward in a somewhat straight line. Sperm that were moving, but that were swimming in circles were classified as non-progressively motile.
To determine whether sperm motility can be restored through betaine supplementation, CHDH−/− mice were given drinking water supplemented to 2% betaine for 38 days.

sperm [3] = experiment: Sperm concentration (hemocytometer) after betaine supplementation; assay type: in vivo, mouse
Procedure: as §1, with “Results are presented as mean±SEM, p<0.001, n=5 animals/group.” left out
Eight to 10 week old CHDH^+/+ and CHDH^−/− male mice were anesthetized with Halothane (Henry Schein, Inc.). […] Sperm concentration was determined by counting cells with a hemocytometer. Percent motility was determined by counting the number of progressively motile sperm per total number of sperm present using a hemocytometer. […]

[4] = humans, dietary supplementation; cited from earlier work
spermatozoa mitochondria [5] = experiment: JC-1 staining, mitochondrial membrane potential in sperm after betaine supplementation; assay type: in vivo, mouse; settings: JC-1 staining of sperm
Procedure: as §1, with “animal).” for “animal). Results are presented as the mean±SEM, p<0.05, n=5 animals/group.”, “Results are presented as mean±SEM, p<0.001, n=5 animals/group.” left out
To detect changes in mitochondrial membrane polarization, JC-1 staining was performed on sperm harvested from cauda epididymis (see FIGS. 8-11 and 13). […] 20 μl of each stained sample was examined with a fluorescence microscope (Olympus BX50, Olympus America, Inc., Center Valley, Pa., United States of America) and large band epifluorescence filters. […] Five fields of vision were counted for each sample and results expressed as percent of total cells.

[6] = test system: isolated rat hepatic mitochondria; settings: inhibition of electron transport chain Complex I (rotenone) or Complex II (malonate); cited from earlier work

C[N+](C)(C)CC(=O)O [betaine]
decrease of MTT conversion (spermatozoa mitochondria [1]; CHDH+/+ sperm, betaine supplementation): 67%
MTT conversion compared to untreated CHDH+/+ sperm (spermatozoa mitochondria [1]; CHDH+/+ spermatozoa, betaine via drinking water for 42 days): significantly decreased
amount of MTT reduction (spermatozoa mitochondria [1]; CHDH+/- or CHDH-/- spermatozoa, betaine supplementation): did not change
changes in mitochondrial function, as measured by MTT assay and JC-1 staining (spermatozoa mitochondria [1]; betaine via drinking water for 42 days, exception CHDH+/+ MTT conversion): No changes
effect on motility of spermatozoa (sperm [2]; CHDH+/+ or CHDH+/- spermatozoa, betaine via drinking water for 42 days): nor was there any effect
sperm motility (sperm [2]; CHDH+/- mice, betaine supplementation): unaffected
asthenospermic phenotype (sperm [2]; CHDH-/- males, betaine via drinking water for 42 days): improved, but not fully rescued
progressive sperm motility (sperm [2]; CHDH-/- mice, drinking water supplemented to 2% betaine for 38 days): approximately 30%
effect on sperm concentration (sperm [3]; CHDH+/+, CHDH+/- or CHDH-/- mice, betaine supplementation): did not have any effect
number of sperm produced (sperm [3]; males of any CHDH genotype, betaine via drinking water for 42 days): did not alter
plasma tHcy concentrations [4]: effective in lowering
effect on inner mitochondrial membrane potential (ΔΨm) (spermatozoa mitochondria [5]): no effect

O=C(O)CC(=O)O [malonate]
choline-stimulated mitochondrial respiration [6]: decreases

C=C(C)[C@H]1Cc2c(ccc3c2O[C@@H]2COc4cc(OC)c(OC)cc4[C@@H]2C3=O)O1 [rotenone]
choline-stimulated mitochondrial respiration [6]: decreases
